We go through 1 molecule from US20260174858A1, “TARGETING THE m6A MRNA DEMETHYLASE FTO” (University of Virginia Patent Foundation, priority 2022, published 2026).

The subject of one experiment is Human THP-1 cells. Nature of the experiment: VEGFA release in human THP-1 cells (ELISA). It counts as cell-based. To be noted: indicated dosage of FTOi, 24 hours or 48 hours; supernatant ELISA. As for the experimental part:
(§1) Primary WT or mutant mouse bone marrow derived macrophages (BMDMs) were isolated as previously described (4). BMDMs were cultured in IMDM (Gibco) basal medium containing 10% fetal bovine serum (FBS), 30% L929 supernatants, nonessential amino acids, sodium pyruvate, 2-mercaptoethanol, and antibiotics. THP-1 cells were cultured in RPMI 1640 medium with 10% FBS and antibiotics. Human RPE cells were isolated as previously described and cultured in DMEM medium with 10% FBS and antibiotics. All cells were maintained at 37° C. in a 5% CO2 environment.
The RPE-choroid complex was isolated from mouse eyes on day 3 after laser injury and treatment with FTO inhibitor or vehicle. Eye tissues were lysed by sonication with immunoprecipitation assay (RIPA) buffer (Sigma-Aldrich, R0278, USA) containing protease inhibitor (Sigma-Aldrich, 11836170001, USA), on ice for 15 minutes. The lysate was centrifuged at 20,000×g for 15 minutes at 4° C., and total protein in the lysates was quantified using the Thermo Scientific™ Pierce™ BCA™ Protein Assay (Fisher Scientific, PI23225, USA). VEGFA protein levels in the supernatants were measured by VEGF DuoSet ELISA (R&D Systems, DY493, USA), following the manufacturer's instructions. […] VEGFA levels in the supernatants were measured by mouse or human VEGF DuoSet ELISA (R&D Systems, DY493 or DY293B, USA), following the manufacturer's instructions.
Background: In an ELISA, binding on a coated surface is turned into a signal by an enzyme label.

The subject of a further experiment is human ARPE-19 cells. The experiment can be described thus: VEGFA release in human ARPE-19 cells. It counts as cell-based.
A further experiment relates to macrophage. Nature of the experiment: mRNA abundance of other pro-angiogenic factors in macrophages (RT-PCR). In kind it is cell-based, mouse. Conditions: FTO inhibition. As for the experimental part: Total RNA was extracted from mouse BMDMs or eye tissues with TRIzol™ Reagent (Thermo Fisher Scientific, 15596018, USA) and quantified by using a NanoDrop 2000 spectrophotometer (Thermo-Fisher Scientific, USA). Reverse transcription was performed using the QuantiTect Reverse Transcription kit (205313, QIAGEN). Target genes were amplified by real-time quantitative polymerase chain reaction (PCR) (Applied Biosystems, 7900 HT Fast Real-Time PCR system) with Power SYBR Green Master Mix. Relative gene expression was determined by the 2^−ΔΔCt method, and 18S rRNA or GAPDH (glyceraldehyde-3-phosphate dehydrogenase) was used as an internal control.

Experiment [1] relates to Wild type C57BL/6J mice. Nature of the experiment: LPS model of septic shock, survival. In kind it is in vivo, mouse. To be noted: FTOi 20 mg/kg i.p. 16 hours before, 10 mg/kg LPS challenge; log-rank p<0.05 vs vehicle. As for the experimental part:
(§2) To induced septic shock model, male or female C57BL/6 mice (6 to 10 weeks old) were primed with 10 mg/kg poly(I:C) via intraperitoneal injection. 6 hours later, primed mice were injected with 10 mg/kg LPS and monitored three time daily for a total 5 days. For FTO inhibitor treatment, Wild type C57BL/6J mice were pretreated with 20 mg/kg FB23-2 for 16 hours before sepsis induction. Next day, 20 mg/kg FB23-2 together with 10 mg/kg poly(I:C) were intraperitoneally injected, following with LPS challenge at 6 hours after poly(I:C) priming.

Experiment [2] relates to Wild type C57BL/6J mice. Nature of the experiment: Serum cytokines release in the LPS model of sepsis (ELISA). It counts as in vivo, mouse. Conditions: FTOi 20 mg/kg i.p., 10 mg/kg LPS, serum at 10 hours after LPS. As for the experimental part: (§3) Secreted IL-6 in the BMDMs medium or serum IL-6, TNF-alpha, and IL-1alpha were detected by ELISA (Mouse IL-1 alpha/IL-1F1 DuoSet, R&D Systems, DY400; Mouse IL-6 DuoSet, R&D Systems, DY406; Mouse TNF-alpha DuoSet, R&D Systems, DY410) according to the manufacturer's instructions.
as §2

For experiment [3], the system named is Human RPE cell line, ARPE-19. Nature of the experiment: TGF-β1-induced fibrotic response in ARPE-19 (immunoblotting, immunofluorescence). In kind it is cell-based. To be noted: FTOi pretreatment at indicated concentrations, TGF-β1 10 ng/ml 12 hours. As for the experimental part:
Cells and tissues were homogenized in RIPA buffer (R0278, Sigma) with protease and phosphatase inhibitors (A32959, Thermo Scientific). Protein concentration was determined with a Pierce BCA Protein Assay Kit (23225, Thermo Scientific). Equal quantities of protein boiled in LDS Sample Buffer (NP0007, Thermo Scientific) were resolved by Novex Tris-glycine gels (Invitrogen) and transferred onto LF PVDF membranes (1704274, Bio-Rad). The transferred membranes were blocked with Blocking Buffer (927-40000, LI-COR) and incubated with the following primary antibodies: anti-FTO pAb (AdipoGen Life Sciences, AG-25A-0089-C100, USA), anti-GAPDH mAb (Cell Signaling Technology, 97166), anti-F4/80 (Santa Cruz Biotechnology, sc-25830). The signal was visualized with species-specific secondary antibodies conjugated with IRDye and Odyssey® CLx Imaging System.
For orientation: Immunoblotting shows a protein as a band on a membrane.

Another experiment concerns Wild type BMDMs. The experiment can be described thus: LPS-induced IL-6 release on BMDMs (ELISA). To be noted: FB23-2 20 uM pre-treatment 1 hour, then 250 ng/ml LPS 6 hours, p<0.0001. It counts as cell-based, mouse. As for the experimental part:
as §1, §3

As for `Cc1noc(C)c1-c1cc(Cl)c(Nc2ccccc2C(=O)NO)c(Cl)c1` [FB23-2], the figures for the VEGFA release entry in the experiment on Human THP-1 cells and with human ARPE-19 cells were “inhibits VEGFA release” and “suppressed the VEGFA release”, respectively. In addition, in the experiment on macrophage, the “mRNA abundance of other pro-angiogenic factors (Plgf, Pdgfa)” value is recorded as “did not significantly alter the mRNA abundance”. For the same molecule, the “Survival (mice death)” value with Wild type C57BL/6J mice [1] is reported as “rescues the mice death”. Moreover, the “Serum cytokines release (IL-6, TNF-α, IL-1α)” value with Wild type C57BL/6J mice [2] was “impairs serum cytokines release”. Also, in experiment [3], the “Fibrotic response (αSMA, fibronectin)” value was “suppress the fibrotic response”. Moreover, the “LPS-induced IL-6 release” value in the experiment on Wild type BMDMs was “reduces LPS-induced IL-6 release”.
